Literature values in PMC8670146 (Journal of Pharmaceutical and Biomedical Analysis, 2021).

Molecular target: SARS-CoV-2 3CLpro (Severe acute respiratory syndrome coronavirus 2, UniProt P0DTD1)
Details: previous study

Structure (SMILES) | in vitro 3CLpro inhibition activity
O=c1cc(-c2ccccc2)oc2cc(O)c(O)c(O)c12 [compound 2, Baicalein] | showed in vitro 3CLpro inhibition activity
O=C(O)[C@H]1O[C@@H](Oc2cc3oc(-c4ccccc4)cc(=O)c3c(O)c2O)[C@H](O)[C@@H](O)[C@@H]1O [compound 1, Baicalin] | showed in vitro 3CLpro inhibition activity
